Read-outs that look alike come from different tables or passages of the source.
Key:
39 clinical isolates = test: Antibiotic resistance of the clinical isolates; type: cell-based; conditions: out of 39 clinical isolates
P. aeruginosa biofilm [1] = type: cell-based, Pseudomonas aeruginosa
P. aeruginosa biofilm [2] = type: cell-based, Pseudomonas aeruginosa; remark: listed apart in the source
P. aeruginosa = type: cell-based, Pseudomonas aeruginosa; conditions: SWF; for recovery of bacteria in the same fresh media after treatment: read after 2, 4 and 24 hours; for dilution in which bacteria recovered when agent used alone: vs combination
Text: For the MBC and recovery potency of bacteria. […] The last well that had no bacterial growth was defined as the MBC.

P. aeruginosa PAO1 = test: In vitro resistance acquisition, serial passage; type: cell-based, Pseudomonas aeruginosa; conditions: SWF, sublethal (1/8 MIC) concentration, 7 days
Procedure: Serial passage of growth as a screen for resistant P. aeruginosa PAO1 was carried out for 7 days in SWF supplemented with sublethal (1/8 dilution from the MIC) concentrations of Ag, Te, and Ag—Te mixture. […] Strains of P. aeruginosa PAO1 were grown in sublethal (1/8th MIC) concentrations of Ag, Te or a mixture of the two antimicrobials, for 7 days.
The impact of the MBAs on antibiotic resistance was also tested. Serial passage of growth as a screen for resistant P. aeruginosa PAO1 was performed for 7 days in SWF supplemented with sublethal (1/8 dilution from the MIC) concentrations of Ag, Te, and Ag—Te mixture.

| Compound | clinical isolates resistant to the antibiotic (39 clinical isolates) | Eradication of P. aeruginosa biofilm (MBEC) (P. aeruginosa biofilm [1]; LB, in 24 h) | Eradication of P. aeruginosa biofilm (MBEC) (P. aeruginosa biofilm [1]; MHB, in 24 h) | Eradication of P. aeruginosa biofilm (MBEC) (P. aeruginosa biofilm [1]; SWF, in 24 h) | Inhibition of P. aeruginosa biofilm (MBIC) (P. aeruginosa biofilm [2]; LB, in 48 h) | Inhibition of P. aeruginosa biofilm (MBIC) (P. aeruginosa biofilm [2]; MHB, in 48 h) | Inhibition of P. aeruginosa biofilm (MBIC) (P. aeruginosa biofilm [2]; SWF, in 48 h) | Eradication of P. aeruginosa biofilm (MBEC) (P. aeruginosa biofilm [1]) | Inhibition of P. aeruginosa biofilm (MBIC) (P. aeruginosa biofilm [2]) | recovery of bacteria in the same fresh media after treatment (P. aeruginosa) | dilution in which bacteria recovered when agent used alone (P. aeruginosa) | occurrence of resistance during serial passage (P. aeruginosa PAO1) |
| --- | --- | --- | --- | --- | --- | --- | --- | --- | --- | --- | --- | --- |
| gentamicin | 15 (38%) isolates (%) |  |  |  |  |  |  |  |  |  |  |  |
| [Au+3].[Cl-].[Cl-].[Cl-].[Cl-] [Au, tetrachloroaurate] |  | 0.25 mM | 0.25 mM | 1 mM | 0.5 mM | 0.25 mM | 0.25 mM |  |  |  |  |  |
| O=[Se](O)O [Se, sodium selenite] |  | >50 mM | >50 mM | >50 mM | >50 mM | >50 mM | >50 mM |  |  |  |  |  |
| O=S(=O)([O-])[O-].[Cu+2] [Cu, copper sulfate] |  |  |  |  |  |  |  | 6.25 mM | 8 mM |  |  |  |
| O=[N+]([O-])[O-].O=[N+]([O-])[O-].O=[N+]([O-])[O-].[Ga+3] [Ga, gallium nitrate] |  | 3 mM | 3 mM | 12.5 mM | 12.5 mM | 12.5 mM | 25 mM |  |  |  |  |  |
| O=[Te]([O-])[O-].[K+].[K+] [Te, potassium tellurite] |  | 0.5 mM | 0.5 mM | 0.5 mM | 0.5 mM | 0.5 mM | 0.5 mM |  |  | couldn't inhibit the recovery of bacteria | two-fold higher dilution | after five days |
| O=[N+]([O-])[O-].[Ag+] [Ag, silver nitrate] |  | 0.065 mM | 0.03 mM | 0.5 mM | 0.125 mM | 0.03 mM | 0.25 mM |  |  | couldn't inhibit the recovery of bacteria | three-fold higher dilution | after two days |
